Patent US20260224557A1, “NRF2 ACTIVATOR” (Ivy Cosmetics Co., Ltd., priority 2023, published 2026)

Tested on: Nrf2
Experiment: ARE (Antioxidant Response Element)-luciferase reporter assay in ARE-luciferase reporter-stably-expressing HaCaT cell line
Format: cell-based
Settings: HaCaT ARE-luciferase reporter cells, 24 hours
Protocol: The Nrf2-activating action of conophylline (crystal) which was isolated and purified from Ervatamia microphylla, which is a plant of the Apocynaceae, by the method described in JP4696303B was evaluated by ARE (Antioxidant Response Element)-luciferase reporter assay, which is known as a monitoring system for the Nrf2 antioxidant pathway. Specifically, a plasmid was obtained by inserting a polynucleotide having a sequence in which ARE sequence was repeated twice ([…]: SEQ ID NO: 1) into the multiple cloning site of pNL2.2 [NlucP/Hygro] Vector (Promega Corporation), which is a vector for luciferase reporter assay, and the plasmid was introduced into HaCaT cells (DKFZ) using Cell Line Nucleofector Kit V (Lonza) by electroporation. After 24 hours, by adding hygromycin at a final concentration of 600 μg/mL and selecting drug-resistant cells, an ARE-luciferase reporter-stably-expressing HaCaT cell line having hygromycin resistance was established. […] After 24 hours, the luciferase activities were measured using Nano-Glo Luciferase Assay System (Promega Corporation) according to the protocol, and thus the Nrf2-activating action of conophylline was evaluated.

SMILES	luciferase activity when Nrf2 inhibitor ML-385 was added together with conophylline (ML-385 20 μM added together with conophylline 1 μg/mL)	luciferase activity (Nrf2-activating action), relative to DMSO control regarded as 1 (conophylline at various final concentrations, FIG. 1)
Cc1ccccc1C(=O)N1CCc2cc(-c3nc(NC(=O)Cc4ccc5c(c4)OCO5)sc3C)ccc21 [ML-385]	decreased considerably	–
CC[C@@]12CC(C(=O)OC)=C3Nc4cc5c(cc4[C@@]34CCN(C[C@H]3O[C@H]31)[C@@H]24)[C@@H]1[C@H](O5)[C@@H](O)[C@@]2(CC)CC(C(=O)OC)=C3Nc4c(cc(O)c(OC)c4OC)[C@@]34CCN1[C@@H]24 [conophylline]	–	enhanced the luciferase activity in a concentration-dependent manner
